Assay results taken from article PMC3234165 (Biochemistry, 2011).

Key:
[1] = target: pure guinea pig sigma-1 receptor (Cavia porcellus, UniProt Q60492); experiment: Competitive displacement of [3H]-; format: binding
[2] = target: 5HT1B (serotonin receptor subtype 1B) (Homo sapiens, UniProt P28222); experiment: NIMH PDSP secondary binding assay
[3] = target: T1, α-1D (α-adrenergic receptor subtype 1D) (Homo sapiens, UniProt P25100); experiment: NIMH PDSP secondary binding assay
T1 sequence (P25100 1-572): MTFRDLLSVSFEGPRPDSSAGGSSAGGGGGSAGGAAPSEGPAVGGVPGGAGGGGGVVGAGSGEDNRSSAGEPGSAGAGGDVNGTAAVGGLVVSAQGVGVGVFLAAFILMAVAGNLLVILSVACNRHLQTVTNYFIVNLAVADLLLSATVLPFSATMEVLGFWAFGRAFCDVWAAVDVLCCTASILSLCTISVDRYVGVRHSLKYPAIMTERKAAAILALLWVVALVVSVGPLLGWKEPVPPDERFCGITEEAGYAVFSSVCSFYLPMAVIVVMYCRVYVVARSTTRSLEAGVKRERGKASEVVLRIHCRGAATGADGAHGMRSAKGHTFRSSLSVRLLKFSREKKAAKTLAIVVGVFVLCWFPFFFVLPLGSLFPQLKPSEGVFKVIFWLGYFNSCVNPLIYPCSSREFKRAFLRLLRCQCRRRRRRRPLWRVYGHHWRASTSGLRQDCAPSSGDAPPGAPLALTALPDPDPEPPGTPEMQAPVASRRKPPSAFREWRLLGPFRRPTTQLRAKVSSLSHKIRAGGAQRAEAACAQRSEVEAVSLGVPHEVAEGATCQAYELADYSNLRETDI

[4] = target: H1 (histamine receptor type 1) (Homo sapiens, UniProt P35367); experiment: NIMH PDSP secondary binding assay
[5] = target: H2 (histamine receptor type 2) (Homo sapiens, UniProt P25021); experiment: NIMH PDSP secondary binding assay
[6] = target: M2 (muscarinic acetylcholine receptor type 2) (Homo sapiens, UniProt P08172); experiment: NIMH PDSP secondary binding assay
[7] = target: M3 (muscarinic acetylcholine receptor type 3) (Homo sapiens, UniProt P20309); experiment: NIMH PDSP secondary binding assay
[8] = target: M4 (muscarinic acetylcholine receptor type 4) (Homo sapiens, UniProt P08173); experiment: NIMH PDSP secondary binding assay
[9] = target: M5 (muscarinic acetylcholine receptor type 5) (Homo sapiens, UniProt P08912); experiment: NIMH PDSP secondary binding assay
Kv1.4 potassium channel = Kv1.4 potassium channel (Rattus norvegicus, UniProt P15385+Q9R0C9); experiment: Whole cell patch clamp, HEK-293 cells co-expressing Kv1.4 and sigma-1 receptor; format: cell-based
[10] = target: sigma-1 receptor (sigma-1 sites) (Cavia porcellus, UniProt Q60492); experiment: Competitive displacement of [3H]-; format: binding, guinea pig
[11] = target: D4 (dopamine receptor type 4) (Homo sapiens, UniProt P21917); experiment: NIMH PDSP secondary binding assay
Sequence of D4 (dopamine receptor type 4) (P21917 whole entry): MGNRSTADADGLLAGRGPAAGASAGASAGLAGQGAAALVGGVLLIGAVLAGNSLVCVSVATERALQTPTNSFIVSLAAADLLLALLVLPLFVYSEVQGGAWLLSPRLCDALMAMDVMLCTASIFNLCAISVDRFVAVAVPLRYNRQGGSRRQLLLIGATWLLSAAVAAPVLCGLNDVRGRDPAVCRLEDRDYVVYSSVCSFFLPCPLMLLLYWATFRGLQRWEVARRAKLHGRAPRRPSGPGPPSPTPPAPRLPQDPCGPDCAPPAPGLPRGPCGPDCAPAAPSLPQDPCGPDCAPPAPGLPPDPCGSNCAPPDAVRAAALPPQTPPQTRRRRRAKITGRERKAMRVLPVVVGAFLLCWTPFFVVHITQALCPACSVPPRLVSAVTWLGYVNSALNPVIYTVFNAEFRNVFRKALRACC

Sequence of 5HT1B (serotonin receptor subtype 1B) (P28222 whole entry, species assumed): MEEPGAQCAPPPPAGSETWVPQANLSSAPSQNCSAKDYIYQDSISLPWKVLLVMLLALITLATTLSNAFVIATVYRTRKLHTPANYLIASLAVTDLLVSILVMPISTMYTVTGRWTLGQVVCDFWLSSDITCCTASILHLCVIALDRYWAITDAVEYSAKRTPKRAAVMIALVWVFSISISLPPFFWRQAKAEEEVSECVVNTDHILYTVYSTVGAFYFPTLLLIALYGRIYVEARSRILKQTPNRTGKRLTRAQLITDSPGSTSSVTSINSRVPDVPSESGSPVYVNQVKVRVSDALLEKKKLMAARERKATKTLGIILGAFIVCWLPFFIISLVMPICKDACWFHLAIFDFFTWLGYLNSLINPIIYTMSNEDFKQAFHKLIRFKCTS
Sequence of H1 (histamine receptor type 1) (P35367 whole entry): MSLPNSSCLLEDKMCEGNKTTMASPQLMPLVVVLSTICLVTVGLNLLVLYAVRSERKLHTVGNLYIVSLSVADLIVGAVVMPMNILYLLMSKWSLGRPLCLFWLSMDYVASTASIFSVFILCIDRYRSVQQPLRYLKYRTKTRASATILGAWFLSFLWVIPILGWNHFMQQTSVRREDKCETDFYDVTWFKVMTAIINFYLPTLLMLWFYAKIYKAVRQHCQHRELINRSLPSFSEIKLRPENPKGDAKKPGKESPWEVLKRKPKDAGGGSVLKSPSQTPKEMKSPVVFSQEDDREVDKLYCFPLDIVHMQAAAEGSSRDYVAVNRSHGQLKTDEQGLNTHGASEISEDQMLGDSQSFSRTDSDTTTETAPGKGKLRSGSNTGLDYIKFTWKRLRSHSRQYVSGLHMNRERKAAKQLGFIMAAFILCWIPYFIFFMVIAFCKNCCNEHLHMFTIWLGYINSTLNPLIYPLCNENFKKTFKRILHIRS
Sequence of M5 (muscarinic acetylcholine receptor type 5) (P08912 whole entry): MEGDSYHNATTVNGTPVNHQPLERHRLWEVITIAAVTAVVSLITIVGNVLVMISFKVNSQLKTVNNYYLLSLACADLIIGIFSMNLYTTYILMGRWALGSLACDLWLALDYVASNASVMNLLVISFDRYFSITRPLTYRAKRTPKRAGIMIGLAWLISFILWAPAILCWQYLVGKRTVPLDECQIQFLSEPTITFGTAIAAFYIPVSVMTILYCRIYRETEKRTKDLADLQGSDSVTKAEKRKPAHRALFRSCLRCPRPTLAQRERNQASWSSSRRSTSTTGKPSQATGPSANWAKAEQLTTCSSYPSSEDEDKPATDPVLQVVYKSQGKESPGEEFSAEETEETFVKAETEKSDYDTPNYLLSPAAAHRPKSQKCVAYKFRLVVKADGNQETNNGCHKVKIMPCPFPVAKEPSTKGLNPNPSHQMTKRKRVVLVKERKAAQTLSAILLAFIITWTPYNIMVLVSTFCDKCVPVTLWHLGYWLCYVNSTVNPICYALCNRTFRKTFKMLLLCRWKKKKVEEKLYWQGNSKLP
Sequence of M4 (muscarinic acetylcholine receptor type 4) (P08173 whole entry): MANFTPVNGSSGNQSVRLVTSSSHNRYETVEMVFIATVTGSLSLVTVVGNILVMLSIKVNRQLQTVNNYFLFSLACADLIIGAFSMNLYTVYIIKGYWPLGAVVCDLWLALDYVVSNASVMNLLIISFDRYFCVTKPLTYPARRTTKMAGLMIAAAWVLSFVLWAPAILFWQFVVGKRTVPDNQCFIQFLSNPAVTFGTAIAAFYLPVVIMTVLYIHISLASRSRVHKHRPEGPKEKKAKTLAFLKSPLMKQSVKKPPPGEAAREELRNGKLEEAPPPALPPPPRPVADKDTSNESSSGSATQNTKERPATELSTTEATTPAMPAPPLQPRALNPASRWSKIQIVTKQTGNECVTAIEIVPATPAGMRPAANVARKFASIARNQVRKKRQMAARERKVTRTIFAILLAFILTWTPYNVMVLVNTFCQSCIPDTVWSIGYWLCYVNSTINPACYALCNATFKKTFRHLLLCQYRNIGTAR
Sequence of H2 (histamine receptor type 2) (P25021 whole entry): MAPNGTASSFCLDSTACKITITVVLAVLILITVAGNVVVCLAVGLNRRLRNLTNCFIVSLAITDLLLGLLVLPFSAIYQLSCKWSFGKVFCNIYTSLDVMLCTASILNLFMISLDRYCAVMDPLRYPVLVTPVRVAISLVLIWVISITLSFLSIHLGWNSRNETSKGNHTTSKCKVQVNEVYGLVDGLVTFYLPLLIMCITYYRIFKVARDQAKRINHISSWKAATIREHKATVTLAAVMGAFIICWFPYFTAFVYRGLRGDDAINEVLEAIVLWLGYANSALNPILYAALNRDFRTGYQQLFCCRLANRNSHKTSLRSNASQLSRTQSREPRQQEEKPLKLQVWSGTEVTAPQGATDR
Sequence of M3 (muscarinic acetylcholine receptor type 3) (P20309 whole entry): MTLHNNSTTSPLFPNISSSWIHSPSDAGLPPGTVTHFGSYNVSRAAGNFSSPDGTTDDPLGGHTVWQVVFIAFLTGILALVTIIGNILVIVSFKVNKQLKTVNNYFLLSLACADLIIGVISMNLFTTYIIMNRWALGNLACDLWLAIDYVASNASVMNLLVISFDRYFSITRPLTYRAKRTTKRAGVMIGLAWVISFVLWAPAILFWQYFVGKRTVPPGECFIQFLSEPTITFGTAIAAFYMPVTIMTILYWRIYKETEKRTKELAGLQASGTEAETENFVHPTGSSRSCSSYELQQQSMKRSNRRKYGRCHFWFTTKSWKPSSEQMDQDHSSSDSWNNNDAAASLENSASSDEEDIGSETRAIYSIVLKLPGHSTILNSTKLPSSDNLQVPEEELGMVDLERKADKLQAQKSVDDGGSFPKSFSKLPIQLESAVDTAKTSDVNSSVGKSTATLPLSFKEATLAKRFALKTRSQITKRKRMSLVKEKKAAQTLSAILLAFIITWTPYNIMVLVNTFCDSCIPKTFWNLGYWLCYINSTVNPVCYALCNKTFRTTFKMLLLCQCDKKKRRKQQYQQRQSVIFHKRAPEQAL
Sequence of M2 (muscarinic acetylcholine receptor type 2) (P08172 whole entry): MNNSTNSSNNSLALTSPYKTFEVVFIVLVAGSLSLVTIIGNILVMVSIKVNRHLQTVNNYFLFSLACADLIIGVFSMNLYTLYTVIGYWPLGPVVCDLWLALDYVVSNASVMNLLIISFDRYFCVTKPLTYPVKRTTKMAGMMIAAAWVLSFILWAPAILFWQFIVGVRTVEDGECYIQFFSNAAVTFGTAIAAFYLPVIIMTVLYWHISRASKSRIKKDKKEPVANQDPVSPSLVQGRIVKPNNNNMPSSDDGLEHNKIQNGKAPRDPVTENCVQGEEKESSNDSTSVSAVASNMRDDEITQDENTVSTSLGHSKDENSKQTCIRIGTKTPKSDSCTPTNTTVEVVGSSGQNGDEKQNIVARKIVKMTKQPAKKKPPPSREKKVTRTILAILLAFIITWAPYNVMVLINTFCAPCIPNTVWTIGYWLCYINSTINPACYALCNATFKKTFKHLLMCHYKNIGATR
Sequence of Kv1.4 potassium channel (P15385 whole entry): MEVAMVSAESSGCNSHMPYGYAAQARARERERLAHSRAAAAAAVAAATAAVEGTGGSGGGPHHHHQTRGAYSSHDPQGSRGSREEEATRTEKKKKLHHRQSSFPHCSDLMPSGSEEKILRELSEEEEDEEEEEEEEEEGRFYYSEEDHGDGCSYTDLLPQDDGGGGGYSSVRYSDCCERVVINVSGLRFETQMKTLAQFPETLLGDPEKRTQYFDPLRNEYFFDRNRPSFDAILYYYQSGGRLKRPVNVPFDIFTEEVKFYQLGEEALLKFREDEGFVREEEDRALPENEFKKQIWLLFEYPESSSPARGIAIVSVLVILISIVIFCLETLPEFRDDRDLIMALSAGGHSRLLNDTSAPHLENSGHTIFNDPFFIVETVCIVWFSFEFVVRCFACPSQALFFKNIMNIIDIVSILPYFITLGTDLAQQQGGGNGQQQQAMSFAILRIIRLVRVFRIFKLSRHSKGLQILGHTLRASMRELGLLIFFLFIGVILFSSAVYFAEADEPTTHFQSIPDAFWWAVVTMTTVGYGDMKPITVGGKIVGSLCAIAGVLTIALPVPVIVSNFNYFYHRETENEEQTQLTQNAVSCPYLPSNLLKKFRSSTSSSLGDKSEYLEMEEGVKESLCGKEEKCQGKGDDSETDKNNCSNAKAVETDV
Sequence of Kv1.4 potassium channel (Q9R0C9 whole entry): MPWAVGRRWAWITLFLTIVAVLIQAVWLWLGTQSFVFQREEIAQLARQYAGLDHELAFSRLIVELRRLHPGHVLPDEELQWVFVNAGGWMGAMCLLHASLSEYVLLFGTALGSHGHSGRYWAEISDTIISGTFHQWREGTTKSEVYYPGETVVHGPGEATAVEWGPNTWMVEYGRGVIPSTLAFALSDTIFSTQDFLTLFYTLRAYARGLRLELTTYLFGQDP
Sequence of sigma-1 receptor (sigma-1 sites) (Q60492 whole entry): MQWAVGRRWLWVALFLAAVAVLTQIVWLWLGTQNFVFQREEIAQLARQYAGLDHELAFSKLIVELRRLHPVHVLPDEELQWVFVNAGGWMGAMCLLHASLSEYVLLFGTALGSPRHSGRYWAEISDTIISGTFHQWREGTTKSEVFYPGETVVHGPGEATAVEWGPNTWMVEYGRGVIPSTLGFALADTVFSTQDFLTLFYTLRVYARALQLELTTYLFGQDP
Sequence of pure guinea pig sigma-1 receptor (Q60492 whole entry): as above

| Structure (SMILES) | Ki [1] [µM] | Ki [2] [µM] | Ki [3] [µM] | Ki [4] [µM] | Ki [5] [µM] | Ki [6] [µM] | Ki [7] [µM] | Ki [8] [µM] | Ki [9] [µM] | IC50 (Kv1.4 potassium channel) [µM] | Ki [10] [µM] | Ki [11] [µM] |
| --- | --- | --- | --- | --- | --- | --- | --- | --- | --- | --- | --- | --- |
| CCCCCCCNCCCc1ccccc1 [2a, N-(3-Phenylpropyl)heptan-1-amine] | 0.018 ± 0.014 | > 10 | > 10 | > 10 | > 10 | > 10 | > 10 | > 10 | > 10 | 10 |  |  |
| CCCCCCCCCCCCNCCCc1ccc([N+](=O)[O-])cc1 [3b, N-(3-(4-Nitrophenyl)propyl)dodecan-1-amine] |  | > 10 | 9 | > 10 |  |  |  |  | 3.6 |  | 5.1 ± 0.2 |  |
| CCCCCCCCCCCCNCCCc1ccccc1 [3a, N-(3-Phenylpropyl)dodecan-1-amine] |  | > 10 | > 10 | > 10 | > 10 | > 10 | > 10 | > 10 | > 10 |  |  | > 10 |
